From patent US6525001B1, “Substituted pyrimidine and pyridine herbicides” (Mid-American Commercialization Corporation, priority 1997, dated 2003)

How the values were obtained:
Type in all cases: in vivo
[1] = tested on: johnsongrass (Sorghum halepense); test: Test C; details: PREEMERGENCE
[2] = tested on: sandbur (Cenchrus echinatus); test: Test E pre-/postemergence/post directed; parameters: key: 0 is no injury; 100 is complete control; details: PREEMERGENCE, Rate 32 g/ha
Procedure, shortened: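 Injury scored visually on a 0–100 scale (100 = complete control) 13 to 21 days after treatment. Test chemicals, formulated with surfactant in non-phytotoxic solvent, were applied to soil within one day of planting, to plants at two to four leaves (three to twenty cm), or as directed spray at plant base.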

[3] = tested on: wild oat (Avena fatua); test: Test D; details: PREEMERGENCE
[4] = tested on: guineagrass (Panicum maximum); test: Test E pre-/postemergence/post directed; parameters: key: 0 is no effect; 100 is complete control; details: PREEMERGENCE
From the text: (§1) Seeds, tubers, or plant parts of alexandergrass (Brachiaria plantaginea), annual bluegrass (Poa annua), arrowleaf sida (Sida rhombifolia), barnyardgrass (Echinochloa crus-galli), bermudagrass (Cynodon dactylon), citrus (Citrus sinensis), common chickweed (Stellaria media), common purslane (Portulaca oleracea), common ragweed (Ambrosia elatior), common groundsel (Senecio vulgaris), dallisgrass (Paspalum dilatatum), goosegrass (Eleusine indica), green foxtail (Setaria viridis), guineagrass (Panicum maximum), itchgrass (Rottboellia exaltata), johnson grass (Sorghum halepense), kochia (Kochia scoparia), large crabgrass (Digitaria sanguinalis), leafy spurge (Euphorbia esula), pitted morningglory (Ipomoea lacunosa), purple nutsedge (Cyperus rotundus), quackgrass (Agropyron repens), Russian thistle (Salsola kali), sandbur (Cenchrus echinatus), sourgrass (Trichachne insularis), Spanishneedles (Bidens bipinnata), sugarcane (Saccharum officinarum), surinam grass (Brachiaria decumbens) and tall mallow (Malva sylvestris) were planted into greenhouse pots of flats containing greenhouse planting medium. Plant species were grown grown in separate pots or individual compartments. Preemergence applications were made within one day of planting the seed or plant part. Postemergence applications were applied when the plants were in the two to four leaf stage (three to twenty cm).
(§2) Test chemicals were formulated in a non-phytotoxic solvent mixture which included a surfactant and applied preemergence to the soil surface, postemergence to the plants or as a post directed spray to plants and soil at the base of the target species. Untreated control plants and treated plants were placed in the greenhouse and visually evaluated for injury 13 to 21 days after herbicide application. Plant response ratings, summarized in Table E, are based on a 0 to 100 scale where 0 is no injury and 100 is complete control. A dash (−) response means no test result.

[5] = tested on: goosegrass (Eleusine indica); test: Test E pre-/postemergence/post directed; parameters: key: 0 is no effect; 100 is complete control; details: PREEMERGENCE
From the text: as §1, §2

[6] = tested on: sourgrass (Trichachne insularis); test: Test E pre-/postemergence/post directed; parameters: key: 0 is no effect; 100 is complete control; details: PREEMERGENCE
From the text: as §1, §2

[7] = tested on: common ragweed (Ambrosia elatior); test: Test E pre-/postemergence/post directed; parameters: key: 0 is no effect; 100 is complete control; details: PREEMERGENCE, Rate 250 g/ha
From the text: as §1, §2

[8] = tested on: bermudagrass (Cynodon dactylon); test: Test E pre-/postemergence/post directed; parameters: key: 0 is no effect; 100 is complete control; details: PREEMERGENCE
From the text: as §1, §2

[9] = tested on: large crabgrass (Digitaria sanguinalis); test: Test E pre-/postemergence/post directed; parameters: key: 0 is no effect; 100 is complete control; details: PREEMERGENCE
From the text: as §1, §2

[10] = tested on: common groundsel (Senecio vulgaris); test: Test E pre-/postemergence/post directed; parameters: key: 0 is no effect; 100 is complete control; details: PREEMERGENCE
From the text: as §1, §2

[11] = tested on: tall mallow (Malva sylvestris); test: Test E pre-/postemergence/post directed; parameters: key: 0 is no effect; 100 is complete control; details: PREEMERGENCE
From the text: as §1, §2

[12] = tested on: common purslane (Portulaca oleracea); test: Test E pre-/postemergence/post directed; parameters: key: 0 is no effect; 100 is complete control; details: PREEMERGENCE
From the text: as §1, §2

[13] = tested on: dallisgrass (Paspalum dilatatum); test: Test E pre-/postemergence/post directed; parameters: key: 0 is no effect; 100 is complete control; details: PREEMERGENCE
From the text: as §1, §2

[14] = tested on: downy brome (Bromus tectorum); test: Test D; details: PREEMERGENCE
[15] = tested on: soybean (Glycine max); test: Test C; parameters: key: 0 was no effect; 100 was complete control; details: PREEMERGENCE
[16] = tested on: field bindweed (Convolvulus arvensis); test: Test C; parameters: key: 0 was no effect; 100 was complete control; details: PREEMERGENCE
[17] = tested on: hairy beggarticks (Bidens pilosa); test: Test C; parameters: key: 0 was no effect; 100 was complete control; details: PREEMERGENCE

CCc1cnc(-n2ccc(C(F)(F)F)n2)nc1Cc1cccc(C(F)(F)F)c1 [Compound 46] was tested, and the “Plant response rating, Johnsongrass” value ([1]; Rate 35 g/ha) was 5, the “Plant response rating, Johnsongrass” value ([1]; Rate 70 g/ha) was 45 and the “Plant response rating, Johnsongrass” value ([1]; Rate 140 g/ha) was 50. The “Plant response rating, Sandbur” value [2] was 0, the “Plant response rating, Wild oat” value ([3]; Rate 31 g/ha) was 50 and the “Plant response rating, Wild oat” value ([3]; Rate 62 g/ha) was 70. For the same molecule, the “Plant response rating, Guineagrass” value ([4]; Rate 32 g/ha) was 60, the “Plant response rating, Guineagrass” value ([4]; Rate 64 g/ha) was 85 and the “Plant response rating, Guineagrass” value ([4]; Rate 125 g/ha) was 100. For the same molecule, the “Plant response rating, Guineagrass” value ([4]; Rate 250 g/ha) was 98, the “Plant response rating, Goosegrass” value ([5]; Rate 32 g/ha) was 85 and the “Plant response rating, Goosegrass” value ([5]; Rate 64 g/ha) was 90. The “Plant response rating, Goosegrass” value ([5]; Rate 125 g/ha) was 98, the “Plant response rating, Goosegrass” value ([5]; Rate 250 g/ha) was 100 and the “Plant response rating, Sourgrass” value ([6]; Rate 32 g/ha) was 98. The “Plant response rating, Sourgrass” value ([6]; Rate 64 g/ha) was 100, the “Plant response rating, Sourgrass” value ([6]; Rate 125 g/ha) was 100 and the “Plant response rating, Sourgrass” value ([6]; Rate 250 g/ha) was 100. For the same molecule, the “Plant response rating, Com. ragweed” value [7] was 100, the “Plant response rating, Bermudagrass” value ([8]; Rate 125 g/ha) was 100 and the “Plant response rating, Bermudagrass” value ([8]; Rate 250 g/ha) was 100. The “Plant response rating, Large crabgrass” value ([9]; Rate 125 g/ha) was 100, the “Plant response rating, Large crabgrass” value ([9]; Rate 250 g/ha) was 100 and the “Plant response rating, Com. groundsel” value ([10]; Rate 32 g/ha) was 100. For the same molecule, the “Plant response rating, Com. groundsel” value ([10]; Rate 64 g/ha) was 100, the “Plant response rating, Com. groundsel” value ([10]; Rate 125 g/ha) was 100 and the “Plant response rating, Com. groundsel” value ([10]; Rate 250 g/ha) was 100. The “Plant response rating, Tall Mallow” value ([11]; Rate 32 g/ha) was 100, the “Plant response rating, Tall Mallow” value ([11]; Rate 64 g/ha) was 100 and the “Plant response rating, Tall Mallow” value ([11]; Rate 125 g/ha) was 100. For the same molecule, the “Plant response rating, Tall Mallow” value ([11]; Rate 250 g/ha) was 100, the “Plant response rating, Com. purslane” value ([12]; Rate 32 g/ha) was 100 and the “Plant response rating, Com. purslane” value ([12]; Rate 64 g/ha) was 100. For the same molecule, the “Plant response rating, Com. purslane” value ([12]; Rate 125 g/ha) was 100, the “Plant response rating, Com. purslane” value ([12]; Rate 250 g/ha) was 100 and the “Plant response rating, Dallisgrass” value ([13]; Rate 32 g/ha) was 65. The “Plant response rating, Dallisgrass” value ([13]; Rate 64 g/ha) was 98, the “Plant response rating, Dallisgrass” value ([13]; Rate 125 g/ha) was 100 and the “Plant response rating, Dallisgrass” value ([13]; Rate 250 g/ha) was 100. For the same molecule, the “Plant response rating, Downy brome” value ([14]; Rate 31 g/ha) was 70, the “Plant response rating, Downy brome” value ([14]; Rate 62 g/ha) was 70 and the “Plant response rating, Soybean” value ([15]; Rate 35 g/ha) was 0. For the same molecule, the “Plant response rating, Soybean” value ([15]; Rate 70 g/ha) was 0, the “Plant response rating, Soybean” value ([15]; Rate 140 g/ha) was 20 and the “Plant response rating, Field bindweed” value ([16]; Rate 35 g/ha) was 10. For the same molecule, the “Plant response rating, Field bindweed” value ([16]; Rate 70 g/ha) was 70, the “Plant response rating, Field bindweed” value ([16]; Rate 140 g/ha) was 100 and the “Plant response rating, H. beggarticks” value ([17]; Rate 35 g/ha) was 0. For the same molecule, the “Plant response rating, H. beggarticks” value ([17]; Rate 70 g/ha) was 100 and the “Plant response rating, H. beggarticks” value ([17]; Rate 140 g/ha) was 100.
